The test system of experiment [1] is A. baumannii ATCC 17978. As to the kind of experiment: Single time-point entropy (RNA-Seq) with linear regression MIC prediction. Format: cell-based. As to conditions: Acinetobacter baumannii, ATCC17978, 2 h; read-out: predicted MIC (linear regression model on entropy).
The test system of experiment [2] is antibiotic-adapted S. pneumoniae T4 (aT4). As to the kind of experiment: Fitness outcome under antibiotic exposure (growth curve assay). Format: cell-based, Streptococcus pneumoniae. The method, then:
(§1) To test whether a gene-panel model can be trained that predicts fitness for many different conditions, a large RNA-Seq dataset was generated for the human pathogen Streptococcus pneumoniae. […] These include cell wall synthesis inhibitors (CWSI), DNA synthesis inhibitors (DSI), protein synthesis inhibitors (PSI) and RNA synthesis inhibitors ((RSI); FIG. 1A, Tables 1 & 2). Each strain was exposed to each antibiotic for 2 to 4 hours and cells were harvested for RNA-Seq at various time points. As T4 and 19F are susceptible to most antibiotics used, the transcriptional profiles in the presence of antibiotics mostly represent cases of low fitness (FIG. 1A, sensitive strain, 1xMICWT). In order to find patterns that differentiate fitness outcomes, adapted strains were generated with increased fitness in the presence of antibiotics by serial passaging wildtype T4 and 19F in the presence of increasing amounts of antibiotics. Four independent adapted populations for each strain were selected on individual antibiotics. These adapted strains could grow in the presence of antibiotic at 1.5xMIC of the wildtype strain, albeit with a small growth defect (FIGS. 6A-6E & 6F). In parallel, RNA-Seq was performed on S. pneumoniae strains D39 and T4 in a chemically defined medium, and media from which either uracil, Glycine or L-Valine was removed, which are essential for D39 but not T4. This enabled the potential identification of a common stress signature that is shared between antibiotic exposure and nutrient deprivation, and across multiple strains. Lastly, D39 was adapted to grow in the absence of each individual nutrient, after which RNA-Seq was repeated for adapted clones (Table 1 lists all 24 strains, 67 populations and 267 RNA-Seq experiments).
(§2) S. pneumoniae strain TIGR4 (T4; NC_003028.3) is a serotype 4 strain originally isolated from a patient^3,4, Taiwan-19F (19F; NC_012469.1) is a multi-drug resistant strain^5,6 and D39 (NC_008533) is a commonly used serotype 2 strain originally isolated from a patient about 90 years ago^7. Strain PG1 and PG19 were isolated from adults with pneumococcal bacteremia infection and included in the Pneumococcal Bacteremia Collection Nijmegen (PBCN)^8. All S. pneumoniae gene numbers refer to the T4 genome. Correspondence between homologous genes among S. pneumoniae strains and gene function annotations are described herewith. Escherichia coli strain AR538, Klebsiella pneumoniae strain AR497 and Salmonella enterica subsp Typhimurium strain AR635 were clinical isolates obtained from the Center of Disease Control (CDC). Staphylococcus aureus strain MN6 was kindly provided by George Sakoulas (Center of Immunity, Infection & Inflammation, UCSD School of Medicine). Unless otherwise specified, S. pneumoniae strains were cultivated in Todd Hewitt medium with 5% yeast extract (THY) with 5 μL/mL oxyrase (Oxyrase, Inc) or on sheep's blood agar plates (Northeastern Laboratories) at 37° C. with 5% CO2. A. baumannii, E. coll. K. pneumoniae, S. aureus and S. Typhimurium were cultured in Mueller Hinton broth II (Sigma) at 37° C. with 220 rpm constant shaking. Tn-Seq and RNA-Seq experiments of S. pneumoniae under nutrient-depletion and antibiotic conditions were performed in chemically defined medium (CDM)^9 and semi-defined minimal medium (SDMM)^10, respectively. RNA-Seq experiments for A. baumannii, S. Typhimurium, E. coll. K. pneumoniae, and S. aureus were performed in Mueller Hinton broth II. Single strain growth assays were performed at least three times using 96-well plates by taking OD600 measurements on a Tecan Infinite 200 PRO plate reader.
(§3) D39 was used as the parental strain in nutrient-depletion evolution experiments; T4 and 19F were used as parental strains in antibiotic evolution experiments. […] Four replicate populations were serial passaged in CDM or SDMM as controls to identify background adaptations in nutrient or antibiotic adaptation experiments, respectively. […]

Experiment [3] concerns antibiotic-adapted S. pneumoniae 19F (a19F). Described as above. Format: cell-based, Streptococcus pneumoniae. The method, then: as §1, §2, §3
Experiment [4] has as its system Escherichia coli AR538. As to the kind of experiment: Fitness outcome under ciprofloxacin (growth curve assay). Format: cell-based. The settings on record: E. coli AR538. The method, then: (§4) Since the single-timepoint variant of entropy is the most practical (in terms of data collection and cost), the generalizability of entropy to previously unseen species was evaluated using this model. RNA-Seq was performed at 120 min post exposure to 1 μg/mL of CIP. […] Single-timepoint entropy was computed for the transcriptome of each of these previously unseen isolates.
as §2

Experiment [5] has as its system Klebsiella pneumoniae AR497. The experiment is described as above. Format: cell-based. As to conditions: K. pneumoniae AR497. The method, then:
as §4, §2

In experiment [6] the test system is Staphylococcus aureus MN6. Described as above. Format: cell-based. The settings on record: S. aureus MN6. The method, then: as §4, §2
Experiment [7] relates to Salmonella Typhimurium AR635. Described as above. Format: cell-based. As to conditions: S. Typhimurium AR635, 1 μg/mL ciprofloxacin. The method, then: as §4, §2
Experiment [8] deals with Acinetobacter baumannii 17978. The experiment is described as above. Format: cell-based. The settings on record: A. baumannii 17978; 1 μg/mL ciprofloxacin.
Excerpt: as §2, with “K. pneumoniae, S. aureus and S. Typhimurium were cultured in Mueller Hinton broth II (Sigma) at 37° C. with 220 rpm constant shaking. Tn-Seq and RNA-Seq experiments of S. pneumoniae under nutrient-depletion and antibiotic conditions were performed in chemically defined medium (CDM)^9 and semi-defined minimal medium (SDMM)^10, respectively. RNA-Seq experiments for A. baumannii, S. Typhimurium, E. coll. K. pneumoniae, and S. aureus were performed in Mueller Hinton broth II.” left out

The test system of experiment [9] is Acinetobacter baumannii LAC-4. The description is as above. The settings on record: A. baumannii LAC-4; 1 μg/mL ciprofloxacin. Format: cell-based.
Excerpt: as §2, with “K. pneumoniae, S. aureus and S. Typhimurium were cultured in Mueller Hinton broth II (Sigma) at 37° C. with 220 rpm constant shaking. Tn-Seq and RNA-Seq experiments of S. pneumoniae under nutrient-depletion and antibiotic conditions were performed in chemically defined medium (CDM)^9 and semi-defined minimal medium (SDMM)^10, respectively. RNA-Seq experiments for A. baumannii, S. Typhimurium, E. coll. K. pneumoniae, and S. aureus were performed in Mueller Hinton broth II.” left out

The subject of experiment [10] is A. baumannii LAC-4. As to the kind of experiment: Ciprofloxacin MIC determination by growth curves. The settings on record: Acinetobacter baumannii, LAC4, read-out: measured MIC. Format: cell-based. The method, then: (§5) Each concentration was tested in triplicate. Growth was monitored on a Tecan Infinite 200 PRO plate reader at 37° C. for 16 hours. MIC is determined as the lowest concentration that abolishes bacterial growth (FIGS. 6A-6H).

Experiment [11] concerns A. baumannii ATCC 17978. The experiment is described as follows: Ciprofloxacin MIC determination by growth curves. Format: cell-based. The settings on record: Acinetobacter baumannii, ATCC17978, read-out: measured MIC. The method, then:
as §5

The subject of experiment [12] is S. pneumoniae strain TIGR4 (T4). The experiment is described as follows: Determination of relative minimal inhibitory concentration (MIC). Format: cell-based, Streptococcus pneumoniae. The settings on record: Streptococcus pneumoniae, lowest concentration that abolishes bacterial growth, 16 hours, 37° C., read-out: 1x MIC for T4. The method, then: as §5
Experiment [13] has as its system S. pneumoniae strain Taiwan-19F (19F). The experiment is described as above. Format: cell-based, Streptococcus pneumoniae. The settings on record: Streptococcus pneumoniae, 16 h, read-out: 1x MIC for 19F. The method, then:
as §5

Setting [14] is: 1 μg/mL ciprofloxacin, listed as CIP.
Where [15] appears, read: 1 μg/mL ciprofloxacin, listed as ciprofloxacin.
Setting [16] is: strain-specific 1xMIC of ciprofloxacin.

The structures appear in SMILES notation. In brackets after ≈: the same amount, converted by molar mass.

One may read the MIC as the lowest concentration found to suppress growth. `O=C(O)c1cn(C2CC2)c2cc(N3CCNCC3)c(F)cc2c1=O` [Ciprofloxacin, ciprofloxacin]: the minimum inhibitory concentration (MIC) in experiment [1] is 0.04 µg/mL (≈ 0.121 µM); in experiment [10], 8.5 µg/mL (≈ 25.7 µM); in experiment [11], 0.07 µg/mL (≈ 0.211 µM); in experiment [12], 1 µg/mL (≈ 3.02 µM); in experiment [13], 1 µg/mL (≈ 3.02 µM). For the same molecule, the Fitness entry is listed as “High” in [2] (aT4, T4 adapted to the respective antibiotic, 1xMIC and 1.5-2xMIC, growth curves); “High” in experiment [3] (a19F, 19F adapted to the respective antibiotic, 1xMIC and 1.5-2xMIC, growth curves); “High” in experiment [4] (1 μg/mL ciprofloxacin); “insensitive” in [4] (setting [14]); “high fitness” in experiment [4] (setting [15]); “Low,” in [4] (setting [16]). Besides, the Fitness entry in experiment [5] (1 μg/mL ciprofloxacin) is “High”; in experiment [5] (setting [14]), “insensitive”; in [5] (setting [15]) it was “high fitness”; in [5] (setting [16]), “Low,”; in experiment [6] (1 μg/mL ciprofloxacin) it was “High”; in experiment [6] (setting [14]) it was “insensitive”. For the same molecule, the Fitness result is listed as “Low,” in [6] (setting [16]); “Low” in experiment [7]; “low fitness” in experiment [7] (listed as ciprofloxacin); “Low” in experiment [8]; “High” in experiment [9]. Further, the “Survive (real survival outcome)” value is listed as “TRUE” in [2] (strain T4, Adapted TRUE, Concentration L (low)) and “TRUE” in experiment [3] (strain 19F, Adapted TRUE, Concentration L (low)).

The values above are taken from patent US11591634B1, “Forecasting bacterial survival-success and adaptive evolution through multiomics stress-response mapping and machine learning” (priority 2019, dated 2023).
